Assays:
[1] = target: T1, Type-2 angiotensin II receptor (Homo sapiens, UniProt P50052); type: cell-based; settings: cho-k1; also: in other assays of this panel Not Active means under 50% inhibition at 10 µM
T1 sequence (P50052 whole entry): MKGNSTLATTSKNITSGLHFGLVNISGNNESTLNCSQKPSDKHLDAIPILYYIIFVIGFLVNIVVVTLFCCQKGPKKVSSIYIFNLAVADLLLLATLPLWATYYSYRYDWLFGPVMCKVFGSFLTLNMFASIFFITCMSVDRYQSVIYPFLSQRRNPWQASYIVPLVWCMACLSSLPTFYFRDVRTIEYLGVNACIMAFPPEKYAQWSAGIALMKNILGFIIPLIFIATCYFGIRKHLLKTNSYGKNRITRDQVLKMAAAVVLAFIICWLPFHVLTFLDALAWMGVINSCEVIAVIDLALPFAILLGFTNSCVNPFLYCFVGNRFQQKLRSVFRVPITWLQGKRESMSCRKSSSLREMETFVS

[2] = DRUGMATRIX: ATPase, Na+/K+ enzyme inhibition (substrate: ATP); type: tissue-based, Sus scrofa, Heart; settings: Not Active = under 50% inhibition at 10 µM
[3] = DRUGMATRIX: Serotonin (5-Hydroxytryptamine) 5-HT3 radioligand binding (ligand: [3H] GR-65630); type: cell membranes, Membrane; settings: hek293; Not Active = under 50% inhibition at 10 µM
[4] = target: 5-hydroxytryptamine receptor 6 (Homo sapiens, UniProt P50406); type: cell membranes, HeLa, Membrane; settings: for Ki: read-out: Ki; as to all read-outs here: in other assays of this panel Not Active means under 50% inhibition at 10 µM
5-hydroxytryptamine receptor 6, sequence (P50406 whole entry): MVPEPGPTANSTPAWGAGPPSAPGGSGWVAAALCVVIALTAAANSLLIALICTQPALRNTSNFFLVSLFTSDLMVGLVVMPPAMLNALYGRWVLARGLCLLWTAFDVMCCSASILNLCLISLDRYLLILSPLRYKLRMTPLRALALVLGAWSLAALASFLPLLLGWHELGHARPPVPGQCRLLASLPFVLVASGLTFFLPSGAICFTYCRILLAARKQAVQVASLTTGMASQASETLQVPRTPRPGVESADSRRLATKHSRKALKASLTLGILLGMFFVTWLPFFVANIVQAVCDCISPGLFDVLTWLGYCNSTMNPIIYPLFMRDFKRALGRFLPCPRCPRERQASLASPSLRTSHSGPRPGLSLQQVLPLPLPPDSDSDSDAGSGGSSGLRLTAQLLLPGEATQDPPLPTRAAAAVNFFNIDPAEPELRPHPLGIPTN

[5] = target: T2, 3-hydroxy-3-methylglutaryl-coenzyme A reductase (Homo sapiens, UniProt P04035); set-up: species or system Escherichia coli;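 also: enzyme inhibition assay of HMG-CoA reductase using radiolabeled [14C]HMG-CoA as substrate; in other assays of this panel Not Active means under 50% inhibition at 10 µM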
T2 sequence (P04035 whole entry): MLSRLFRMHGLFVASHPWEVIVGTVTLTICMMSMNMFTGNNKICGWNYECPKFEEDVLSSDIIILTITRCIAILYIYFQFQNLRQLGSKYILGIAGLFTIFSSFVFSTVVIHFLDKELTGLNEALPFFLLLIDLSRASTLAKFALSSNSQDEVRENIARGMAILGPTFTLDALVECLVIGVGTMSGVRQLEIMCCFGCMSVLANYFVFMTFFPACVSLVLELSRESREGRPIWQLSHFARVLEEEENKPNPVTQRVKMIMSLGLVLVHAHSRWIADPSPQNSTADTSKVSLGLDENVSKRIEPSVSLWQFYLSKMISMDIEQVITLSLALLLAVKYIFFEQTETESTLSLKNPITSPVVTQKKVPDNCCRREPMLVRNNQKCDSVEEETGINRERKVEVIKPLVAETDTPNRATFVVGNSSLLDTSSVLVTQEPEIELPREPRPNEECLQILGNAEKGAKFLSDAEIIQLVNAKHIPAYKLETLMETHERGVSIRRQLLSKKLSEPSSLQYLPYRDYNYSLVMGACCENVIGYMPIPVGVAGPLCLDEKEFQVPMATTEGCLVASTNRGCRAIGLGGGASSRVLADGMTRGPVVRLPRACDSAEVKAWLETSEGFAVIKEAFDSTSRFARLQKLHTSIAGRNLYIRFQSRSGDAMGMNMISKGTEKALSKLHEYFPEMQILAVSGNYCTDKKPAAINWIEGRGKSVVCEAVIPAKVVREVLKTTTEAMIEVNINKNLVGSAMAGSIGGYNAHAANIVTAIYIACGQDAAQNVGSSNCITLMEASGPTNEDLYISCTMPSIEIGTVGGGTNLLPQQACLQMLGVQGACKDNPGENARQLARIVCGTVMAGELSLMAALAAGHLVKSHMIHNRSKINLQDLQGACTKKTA

Insulin receptor = Insulin receptor (Rattus norvegicus, UniProt P15127); type: cell membranes, Wistar, Liver, Membrane; also: in other assays of this panel Not Active means under 50% inhibition at 10 µM
Insulin receptor, sequence (P15127 27-759 limits assumed): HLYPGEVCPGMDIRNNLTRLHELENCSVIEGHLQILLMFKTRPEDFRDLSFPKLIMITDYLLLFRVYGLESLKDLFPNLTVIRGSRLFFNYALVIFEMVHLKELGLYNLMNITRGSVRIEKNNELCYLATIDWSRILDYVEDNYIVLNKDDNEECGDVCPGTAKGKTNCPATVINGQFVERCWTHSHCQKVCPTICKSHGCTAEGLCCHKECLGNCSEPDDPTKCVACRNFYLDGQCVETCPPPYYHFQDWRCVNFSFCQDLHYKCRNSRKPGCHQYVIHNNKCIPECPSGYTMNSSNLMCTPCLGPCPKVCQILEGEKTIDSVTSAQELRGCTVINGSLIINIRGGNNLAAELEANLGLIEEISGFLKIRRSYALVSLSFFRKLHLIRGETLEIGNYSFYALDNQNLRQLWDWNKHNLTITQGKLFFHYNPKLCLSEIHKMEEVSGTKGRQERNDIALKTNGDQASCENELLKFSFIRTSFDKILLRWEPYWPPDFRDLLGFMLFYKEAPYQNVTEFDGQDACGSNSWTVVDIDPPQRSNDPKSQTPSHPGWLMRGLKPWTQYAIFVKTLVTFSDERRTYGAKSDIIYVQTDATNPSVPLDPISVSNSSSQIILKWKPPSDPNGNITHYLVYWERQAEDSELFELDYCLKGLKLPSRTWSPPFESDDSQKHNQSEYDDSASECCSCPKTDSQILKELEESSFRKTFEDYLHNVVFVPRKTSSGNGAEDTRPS
Insulin receptor, sequence (P15127 764-1383 limits assumed): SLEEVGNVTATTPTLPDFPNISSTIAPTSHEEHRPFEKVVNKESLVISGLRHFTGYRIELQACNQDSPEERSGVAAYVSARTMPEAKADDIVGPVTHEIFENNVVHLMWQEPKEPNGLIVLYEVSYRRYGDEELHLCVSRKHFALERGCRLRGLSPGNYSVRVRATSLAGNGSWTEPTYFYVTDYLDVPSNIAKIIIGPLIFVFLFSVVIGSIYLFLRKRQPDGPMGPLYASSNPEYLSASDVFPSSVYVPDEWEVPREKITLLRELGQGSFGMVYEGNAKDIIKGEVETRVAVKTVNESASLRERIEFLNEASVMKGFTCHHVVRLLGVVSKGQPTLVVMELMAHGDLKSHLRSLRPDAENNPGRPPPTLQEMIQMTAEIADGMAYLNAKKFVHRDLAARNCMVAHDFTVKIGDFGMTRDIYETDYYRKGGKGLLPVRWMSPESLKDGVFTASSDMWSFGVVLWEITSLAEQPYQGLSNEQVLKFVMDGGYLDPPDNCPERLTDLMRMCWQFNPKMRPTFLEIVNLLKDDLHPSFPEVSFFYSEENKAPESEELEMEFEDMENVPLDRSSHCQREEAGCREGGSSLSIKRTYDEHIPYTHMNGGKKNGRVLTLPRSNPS

[6] = target: Protein phosphatase 3 catalytic subunit alpha (Homo sapiens, UniProt Q08209); set-up: species or system Escherichia coli

Row | SMILES | IC50 [1] | IC50 [2] | Ki [2] | IC50 [3] | Ki [3] | IC50 ([4]; hela) | IC50 [5] | IC50 (Insulin receptor) | IC50 [6] | IC50 ([4]; read-out: IC50) [µM] | Ki [4] [µM]
1 | CC#C[C@]1(O)CC[C@H]2[C@@H]3CCC4=CC(=O)CCC4=C3[C@@H](c3ccc(N(C)C)cc3)C[C@@]21C [MIFEPRISTONE] | Not Active | Not Active | Not Active | Not Active | Not Active | Not Active | Not Active | Not Active | Not Active |  | 
2 | CC[C@@]1(O)C(=O)OCc2c1cc1n(c2=O)Cc2cc3c(CN(C)C)c(O)ccc3nc2-1 [TOPOTECAN] | Not Active | Not Active | Not Active | Not Active | Not Active | Not Active | Not Active | Not Active | Not Active |  | 
3 | Nc1nc(N)c2nc(-c3ccccc3)c(N)nc2n1 | Not Active | Not Active | Not Active | Not Active | Not Active | Not Active | Not Active | Not Active | Not Active |  | 
4 | Cc1cc2c(s1)Nc1ccccc1N=C2N1CCN(C)CC1 [OLANZAPINE] | Not Active |  |  |  |  |  | Not Active | Not Active | Not Active |  | 
5 | CC[C@H](C)[C@@H](CO[C@@H](Cc1ccccc1)C(=O)N[C@@H](CCS(C)(=O)=O)C(=O)OC(C)C)NC[C@@H](N)CS | Not Active | Not Active | Not Active | Not Active | Not Active | Not Active | Not Active | Not Active | Not Active |  | 
6 | CO[C@@]12[C@H](COC(N)=O)C3=C(C(=O)C(C)=C(N)C3=O)N1C[C@@H]1N[C@@H]12 [MITOMYCIN] | Not Active | Not Active | Not Active | Not Active | Not Active | Not Active | Not Active | Not Active | Not Active |  | 
7 | CCOC(=O)C1=C(C)NC(C)=C(C(=O)OCC)C1c1ccccc1/C=C/C(=O)OC(C)(C)C [LACIDIPINE] | Not Active | Not Active | Not Active | Not Active | Not Active | Not Active | Not Active | Not Active | Not Active |  | 
8 | Cc1cn([C@H]2C=C[C@@H](CO)O2)c(=O)[nH]c1=O [STAVUDINE] | Not Active | Not Active | Not Active | Not Active | Not Active | Not Active | Not Active | Not Active | Not Active |  | 
9 | C#C[C@]1(O)CC[C@H]2[C@@H]3[C@H](C)CC4=C(CCC(=O)C4)[C@H]3CC[C@@]21C [TIBOLONE] | Not Active | Not Active | Not Active | Not Active | Not Active | Not Active | Not Active | Not Active | Not Active |  | 
10 | CC(O)C(=O)O (stereo unspecified) [LACTIC ACID] | Not Active | Not Active | Not Active | Not Active | Not Active | Not Active | Not Active | Not Active | Not Active |  | 
11 | O=C(O)c1cc(/N=N/c2ccc(S(=O)(=O)Nc3ccccn3)cc2)ccc1O [SULFASALAZINE] | Not Active | Not Active | Not Active | Not Active | Not Active | Not Active | Not Active | Not Active | Not Active |  | 
12 | CCN(CC)C(=S)SSC(=S)N(CC)CC | Not Active | Not Active | Not Active | Not Active | Not Active |  | Not Active | Not Active | Not Active | 16 | 7.43
13 | CNCCCC12CCC(c3ccccc31)c1ccccc12 [MAPROTILINE] | Not Active |  |  |  |  |  | Not Active | Not Active | Not Active | 0.892 | 0.414
14 | Cc1ccc(Cl)c(Nc2ccccc2C(=O)O)c1Cl [MECLOFENAMIC ACID] | Not Active | Not Active | Not Active | Not Active | Not Active | Not Active | Not Active | Not Active | Not Active |  | 
15 | CC(C)(C)NC[C@H](O)COc1cccc2c1CCCC2=O [LEVOBUNOLOL] | Not Active | Not Active | Not Active | Not Active | Not Active | Not Active | Not Active | Not Active | Not Active |  | 
16 | Cc1cccc(C)c1NC(=O)C(C)N (stereo unspecified) [TOCAINIDE] | Not Active | Not Active | Not Active | Not Active | Not Active | Not Active | Not Active | Not Active | Not Active |  | 
17 | CCOc1cc(N)c(Cl)cc1C(=O)NCC1CN(Cc2ccc(F)cc2)CCO1 (stereo unspecified) [MOSAPRIDE] | Not Active | Not Active | Not Active | Not Active | Not Active | Not Active | Not Active | Not Active | Not Active |  | 
18 | Cc1cnc(NC(=O)C2=C(O)c3ccccc3S(=O)(=O)N2C)s1 [MELOXICAM] | Not Active | Not Active | Not Active | Not Active | Not Active | Not Active | Not Active | Not Active | Not Active |  | 
19 | O=C1CC[C@@]2(O)[C@H]3Cc4ccc(O)c5c4[C@@]2(CCN3CC2CC2)[C@H]1O5 [NALTREXONE] | Not Active | Not Active | Not Active | Not Active | Not Active | Not Active | Not Active | Not Active | Not Active |  | 
20 | O=C(c1ccccc1)c1ccc2n1CCC2C(=O)O (stereo unspecified) [KETOROLAC] | Not Active | Not Active | Not Active | Not Active | Not Active | Not Active | Not Active | Not Active | Not Active |  | 
21 | Oc1ccc(/C=C/c2cc(O)cc(O)c2)cc1 [RESVERATROL] | Not Active | Not Active | Not Active | Not Active | Not Active | Not Active | Not Active | Not Active | Not Active |  | 
22 | CN1C(=O)OC(C)(C)C1=O [TRIMETHADIONE] | Not Active | Not Active | Not Active | Not Active | Not Active | Not Active | Not Active | Not Active | Not Active |  | 
23 | Cc1[nH]c(=O)c(C#N)cc1-c1ccncc1 [MILRINONE] | Not Active | Not Active | Not Active | Not Active | Not Active | Not Active | Not Active | Not Active | Not Active |  | 
24 | C[C@]12CCC(=O)C[C@@H]1CC[C@@H]1[C@@H]2CC[C@]2(C)[C@@H](O)CC[C@@H]12 [STANOLONE] | Not Active | Not Active | Not Active | Not Active | Not Active | Not Active | Not Active | Not Active | Not Active |  | 
25 | CN(C)CCC=C1c2ccccc2COc2ccccc21 [DOXEPIN] | Not Active |  |  |  |  |  | Not Active | Not Active | Not Active |  | 
26 | CCC(C)(C)C(=O)O[C@H]1C[C@@H](C)C=C2C=C[C@H](C)[C@H](CC[C@@H]3C[C@@H](O)CC(=O)O3)[C@H]21 [SIMVASTATIN] | Not Active | Not Active | Not Active | Not Active | Not Active | Not Active |  | Not Active | Not Active |  | 
